Patent US5486511A, “4-amino-17β-(cyclopropyloxy)androst-4-en-3-one, 4-amino-17β-(cyclopropylamino)androst-4-en-3-one and related compounds as C17-20 lyase and 5α-reductase” (Merrell Dow Pharmaceuticals Inc., priority 1994, dated 1996)

How the values were obtained:
[1] = tested on: nude mouse lyase; assay: Inhibition of athymic nude mouse steroid C17,20 lyase (testicular microsomes); type: biochemical; details: nude mouse; 0.01 μM; preincubation 40 min
Description: The activity of the present compounds as inhibitors of steroid C17,20 lyase was established using microsomal preparations of the steroid C17,20 lyase enzyme from human or laboratory animal testes. Human testes used for this purpose were obtained from therapeutic orchiectomies. Specifically, microsomes were isolated from human, cynomolgus monkey, dog, rat or athymic nude mouse testicular tissue. The compound to be tested was dissolved in dimethyl sulfoxide and diluted in 0.05M potassium phosphate buffer to give the desired concentrations of the test compound. The potassium phosphate buffer was at pH 7.4 for the human, monkey and dog lyase assays and at pH 7.2 for the rat and athymic nude mouse lyase assays. Assays also contained 1 mM NADPH, 5 mM glucose-6-phosphate, 1 IU/ml glucose-6-phosphate dehydrogenase (an NADPH regenerating system) and microsomal protein in a total volume of 0.2 mL. Control assays contained all components including dimethyl sulfoxide, but with no test compound. All assays were performed in duplicate. […] Radioactivity in the steroid peaks was measured by a Radiomatic Model HS Flo-One detector.
The enzyme activity for each incubate was calculated from the percent conversion of substrate to products, and the results were expressed as percent inhibition of control. […] The Ki and kinact for time dependent inhibitors were determined by graphical analysis of Kitz-Wilson plots. […]

[2] = tested on: human prostatic tumor xenographs (PC-82); assay: Inhibition of human prostatic tumor growth (PC-82 xenografts in athymic mice); type: in vivo
Description: In this model, human prostatic tumor xenographs (PC-82) are grown in athymic mice. The tumors are serially transplantable, androgen-responsive, slow-growing (i.e. 20-30 days for tumor volume to double) and are moderately differentiated human prostatic adenocarcinoma. These tumors will regress following androgen ablation with a half-life of 18 days (van Weerden, W. M. et al., Prostate 23:149-164 (1993).
The above tumor model of androgen-dependent human prostatic cancer was utilized to evaluate 4-amino-17β-(cyclopropyloxy)androst-4-en-3-one for inhibition of prostatic tumor growth following daily oral treatment at 30 and 100 mg/kg/day (See Table 2). Two control groups were tested, including one which received only the delivery vehicle and another which were bilaterally castrated. Tumor volumes were measured three times per week using a digital caliper using the formula: V (mm^3)=d1 ×(d2)^2 /2 were d1 is the length and d2 the width. The relative percent change in tumor volume is based on the mean tumor volume of the vehicle control groups at week 0 being set equal to 100%.

**Q.** With `C[C@]12CC[C@H]3[C@@H](CCC4=C(N)C(=O)CC[C@@]43C)[C@@H]1CC[C@@H]2OC1CC1` [Compound 2, 4-Amino-17β-(cyclopropyloxy)androst-4-en-3-one] as the molecule, how does the “% Inhibition” value [1] read?
**A.** 84%

**Q.** What about the “Relative percent tumor volume compared to vehicle control at beginning of timed period” value (“Relative percent tumor volume” for short) ([2]; 30 mg/kg/day oral, 0 weeks) of the same molecule?
**A.** 105%

**Q.** What about the Tumor volume ([2]; 30 mg/kg/day oral, 0 weeks) of the same molecule?
**A.** 541 ± 71 mm^3

**Q.** And the “Relative percent tumor volume” value ([2]; 30 mg/kg/day oral, +2 weeks)?
**A.** 150%

**Q.** And the Tumor volume ([2]; 30 mg/kg/day oral, +2 weeks)?
**A.** 771 ± 108 mm^3

**Q.** What about the “Relative percent tumor volume” value ([2]; 30 mg/kg/day oral, +4 weeks) of the same molecule?
**A.** 253%

**Q.** And the Tumor volume ([2]; 30 mg/kg/day oral, +4 weeks)?
**A.** 1305 ± 309 mm^3

**Q.** And the “Relative percent tumor volume” value ([2]; 100 mg/kg/day oral, 0 weeks)?
**A.** 83%

**Q.** And the Tumor volume ([2]; 100 mg/kg/day oral, 0 weeks)?
**A.** 426 ± 49 mm^3

**Q.** And the “Relative percent tumor volume” value ([2]; 100 mg/kg/day oral, +2 weeks)?
**A.** 117%

**Q.** What about the Tumor volume ([2]; 100 mg/kg/day oral, +2 weeks) of the same molecule?
**A.** 601 ± 66 mm^3

**Q.** And the “Relative percent tumor volume” value ([2]; 100 mg/kg/day oral, +4 weeks)?
**A.** 163%

**Q.** What about the Tumor volume ([2]; 100 mg/kg/day oral, +4 weeks) of the same molecule?
**A.** 840 ± 86 mm^3

**Q.** What about the “Inhibition of human prostatic tumor growth (in words)” value ([2]; daily oral treatment) of the same molecule?
**A.** prolonged inhibition of human prostatic tumor growth
